{"source": "patent US20250276038A1", "about": "“HISTATIN COMBINATIONS AND METHODS FOR TREATING OR INHIBITING CELL LOSS” (VISUS THERAPEUTICS, INC., priority 2021, published 2025)", "key": {"[1]": {"tested_on": "corneal endothelial cells", "experiment": "Corneal endothelial cell density after surgical anterior keratectomy (corneal tomography)", "format": "in vivo, New Zealand White rabbits", "conditions": "35 μl 80 μM topical TID; for Percent endothelial cell density reduction from baseline: mean±SD", "method": "Sixteen New Zealand White rabbits, approximately 4-6 months old and weighing 2-3 kg were divided into 2 groups of 8 animals and dosed topically three times per day (TID) for 28 days with either 35 μl phosphate buffered saline (PBS) or 35 μl 80 μM histatin-1 following unilateral surgical keratectomy procedure.\n(§1) Animals were administered buprenorphine (0.01-0.05 mg/kg, SC) for pain control just prior to the procedure. A second dose of buprenorphine (0.01-0.05 mg/kg, SC) was administered in the evening, and then administered on an as needed basis. Animals were induced for surgery with a ketamine/xylazine cocktail (50 mg/kg ketamine and 10 mg/kg xylazine IM); anesthesia was maintained with isoflurane delivered in oxygen through a mask as needed. Following induction of anesthesia, 5% betadine solution, on autoclaved sterile gauze, was used to clean the periocular (eyelids) area of the surgical eye. Betadine was then used to irrigate the ocular surface and conjunctival cul-de-sac, which was then thoroughly irrigated with sterile eyewash. One drop each of 0.5% proparacaine HCl and 10% phenylephrine HCl, was then applied to the ocular surface for ocular anesthesia and mydriasis, respectively. The rabbits were positioned under an operating microscope and an eyelid speculum was affixed. An adjustable, 8 mm corneal vacuum trephine (Moria Surgical, Antony, France) was used to create a central corneal defect of approximately 10-25% stromal depth (approximately 100 μm). The trephined section of the cornea was removed, and the wound left open. Immediately following surgery, a single dose of topical antibiotic (Neomycin Polymyxin B Sulfates Gramicidin ophthalmic solution) was applied.\n(§2) The corneas of anesthetized animals were imaged with a Heidelberg Retinal Tomograph fitted with a Rostock Corneal Module (HRT III RCM). This compact ophthalmic device uses confocal scanning laser microscopy to provide high-resolution en-face images of cornea cells and structures, including corneal sub-basal nerve plexus, keratocytes subpopulations and the corneal endothelial cell layer. Central cornea confocal scans from the epithelium to the endothelium were done and optical stacks of 400×400 μm and 2 μm thick sections were generated and electronically stored for analysis.\nThe optical slice with the endothelium layer having the best resolution and largest coverage was selected. Of the 16 animals in the study, only 14 animals had scans with usable endothelial cell layers at 1 or more time points, and a maximum of only 4 usable scans at any single time point. The HRT III cell counting software was used to adjust image contrast and brightness to enhance manual cell counting within a selected region of interest (ROI). ROIs were >0.005 mm^2. Number of cells within a ROI ranged from 118-287. Partial cells (>½) at the edges of the ROI were counted only on 2 sides at right angles. The software computed endothelial cell density as cells/mm^2 based on manual counts in the selected ROI. Data are presented as mean±standard deviation cells/mm^2. An unpaired Student's T test was used to compare the PBS and histatin-1 groups at each follow-up time point; p<0.05 was considered statistically significant."}, "[2]": {"tested_on": "endothelial cells in human non-surgical cornea buttons", "experiment": "Corneal button preservation under stressed storage conditions (trypan blue staining)", "format": "cell-based", "conditions": "1 μM in standard cornea storage media", "method": "The effect of 1 μM histatin-1 formulated in Life4° C.™ or Optisol™ Corneal Storage Medium was assessed on the preservation of endothelial cells in 9 pairs of human non-surgical cornea buttons stored under stressed conditions. The tissues were individually stored in 20 mL Bausch & Lomb™ Cornea Tissue Viewing Chambers at room temperature (24±2° C.) for 6 to 14 days, preceded by storage at 4° C. for 3 days. All doners were White/Caucasian origin. The median age was 64 years and ranged from 14 to 73. The amount of time from the time of death to the preservation of the corneas ranged from 4 hours 15 mins to 20 hours 48 mins. Endothelial cell counts at the time of tissue harvest was 2222±240 cells/mm^2. Histatin-1 was added every other day to the right eye (OD) in a volume of 200 μL in an amount sufficient to maintain a concentration of 1 μM. Left eyes (OS) were given an equal volume of PBS. Endothelial cell viability was assessed by trypan blue staining as non-viable area expressed as a percentage of 80% of the central cornea. Briefly, cornea buttons were transferred from storage chambers to viewing wells (Barron Punch Cutting Block), endothelium side up, and 0.06% trypan blue in a volume sufficient to cover the endothelial layer limbus to limbus was applied and left for 90 secs, and then rinsed twice with PBS. […]"}, "stromal keratocytes": {"tested_on": "stromal keratocytes", "experiment": "Loss of stromal keratocytes after surgical keratectomy (in vivo confocal corneal tomography, keratocyte counts)", "set-up": "species or system New Zealand White rabbits", "conditions": "for Percent keratocyte reduction from baseline: 35 μl topical TID, 80 μM histatin-1 (+100 μM peptide 6 in combination), mean±SD", "method": "Twenty-four New Zealand White rabbits, approximately 4-6 months old and weighing 2-3 kg were divided into 3 groups of 8 animals and dosed topically three times per day (TID) for 28 days with either 35 μl Phosphate Buffered Saline (PBS), 35 μl 80 μM histatin-1 (Hst-1), or 35 μl 80 μM histatin-1+100 μM peptide 6 (P6) combination following unilateral surgical keratectomy procedure.\nas §1, with “basis. Animals was induced for” for “basis. Animals were induced for”, “respectively. The rabbit was positioned under” for “respectively. The rabbits were positioned under”\nas §2, with “including” for “including corneal sub-basal nerve plexus,”, “sub-basal nerve plexus.” for “endothelial cell layer.”, “400 μm×400” for “400×400”\nA sampling region of the stack of optical scans was selected that corresponded to approximately 150 μm above the endothelium. This was done by counting 75 images up from the endothelium and selecting 5 adjacent images to serve as replicates. Keratocytes presented as reflective distinct irregular shaped objects. […] An unpaired Student's T test was used to compare the histatin-1 and the histatin-1+peptide 6 groups; p<0.05 was considered statistically significant."}, "corneal nerves": {"tested_on": "corneal nerves", "experiment": "Corneal nerve regeneration after surgical anterior keratectomy (Tuj1 wholemount immunohistochemistry)", "format": "in vivo, New Zealand White rabbits", "conditions": "Day 28; 35 μl topical TID, 80 μM histatin-1 (+100 μM peptide 6); mean±SD", "method": "Twelve New Zealand White rabbits, approximately 4-6 months old and weighing 2-3 kg were divided into 3 groups of 4 animals and dosed topically three times per day (TID) for 28 days with either 35 μl phosphate buffered saline (PBS), 35 μl 80 μM histatin-1 or 35 μl of 80 μM histatin-1+100 μM peptide 6 following a unilateral surgical keratectomy procedure.\nAnimals were administered buprenorphine (0.01-0.05 mg/kg, SC) for pain control just prior to the procedure. A second dose of buprenorphine (0.01-0.05 mg/kg, SC) was administered in the evening, and then administered on an as needed basis. Animals were induced for surgery with a ketamine/xylazine cocktail (50 mg/kg ketamine and 10 mg/kg xylazine IM); anesthesia was maintained with isoflurane delivered in oxygen through a mask as needed. Following induction of anesthesia, 5% betadine solution, on autoclaved sterile gauze, was used to clean the periocular (eyelids) area of the surgical eye. […]\nWhile corneas were incubating in their final wash, slides with imaging spacers were prepared. A 0.36, 0.6 mm or combination of the two adhesive imaging spacers (Grace Biolabs cat #SA-S-3L; custom cut to 22×40 mm rectangle with an oblong window cut out) was adhered to a glass slide; spacer thickness was determined by corneal thickness measured on the day of necropsy for treated eyes; control corneas utilized a 0.36 mm spacer. […]"}}, "note": "Where no end group is shown, it is not given here."}
{"sequence": "DSHEKRHHGYRRKFHEKHHSHREFPFYGDYGSNYLYDN [histatin-1]", "values": [{"measurement": "Recovery and apparent normalization of endothelial cell density starting by Day", "setting": "[1]", "value": "≤ 10", "unit": "days"}, {"measurement": "Percent endothelial cell density reduction from baseline", "setting": "[1]; Day 7", "value": "15.1±2.8", "unit": "%"}, {"measurement": "Percent endothelial cell density reduction from baseline", "setting": "[1]; Day 10", "value": "1.1±9.1", "unit": "%"}, {"measurement": "Percent endothelial cell density reduction from baseline", "setting": "[1]; Day 14", "value": "−0.2±5.9", "unit": "%"}, {"measurement": "Percent endothelial cell density reduction from baseline", "setting": "[1]; Day 21", "value": "4.5±7.8", "unit": "%"}, {"measurement": "Percent endothelial cell density reduction from baseline", "setting": "[1]; Day 28", "value": "7.4±2.8", "unit": "%"}, {"measurement": "Reduction of stained area in the endothelial area versus PBS", "setting": "[2]", "value": 45, "unit": "%"}, {"measurement": "Complete recovery of keratocytes by Day", "setting": "stromal keratocytes; 35 μl topical TID after keratectomy", "value": "≤ 28", "unit": "days"}, {"measurement": "Percent keratocyte reduction from baseline", "setting": "stromal keratocytes; Day 7", "value": "40.2±3.3", "unit": "%"}, {"measurement": "Percent keratocyte reduction from baseline", "setting": "stromal keratocytes; Day 10", "value": "37.5±2.4", "unit": "%"}, {"measurement": "Percent keratocyte reduction from baseline", "setting": "stromal keratocytes; Day 14", "value": "32.7±15.3", "unit": "%"}, {"measurement": "Percent keratocyte reduction from baseline", "setting": "stromal keratocytes; Day 21", "value": "26.5±6.0", "unit": "%"}, {"measurement": "Percent keratocyte reduction from baseline", "setting": "stromal keratocytes; Day 28", "value": "2.7±13", "unit": "%"}, {"measurement": "Area of nerve regeneration", "setting": "corneal nerves", "value": "26.1±7", "unit": "mm^2"}, {"measurement": "Area of nerve regeneration as percent of initial 8 mm lesion area (50.3 mm^2)", "setting": "corneal nerves", "value": "51.9±14", "unit": "%"}]}
